We go through eight compounds from EP0771801B1, “Chromane derivatives” (AMERICAN HOME PRODUCTS CORPORATION, priority 1995, dated 1997).

For one assay, the target named is α1. Put plainly: α1 binding (method not described).
The target in the next assay is T1, dopamine autoreceptor (Rattus norvegicus, UniProt P61169).
T1 construct: from tissue; host or cells: rat striatal brain tissue homogenate
Put plainly: Affinity for the dopamine autoreceptor: [3H]-quinpirole binding in homogenized rat striatal brain tissue. As to conditions: for IC50: [3H]-quinpirole, rat striatal brain tissue, read-out: IC50 (nM) D2 Quin.; for Ratio antagonist: ratio of D2 Spiper IC50 to D2 Quin. IC50 (LowAg/HighAg, predicts intrinsic activity). Here is the method:
Affinity for the dopamine autoreceptor was established by a modification of the standard experimental test procedure of Seemen and Schaus, European Journal of Pharmacology 203: 105-109, 1991, wherein homogenized rat striatal brain tissue is incubated with [^3H]-quinpirole (Quin.) at various concentrations of test compound, filtered, washed and counted in a Betaplate scintillation counter.

A further assay has as its target T2, 5-HT1a (Homo sapiens, UniProt P08908).
T2 sequence (P08908 1-422): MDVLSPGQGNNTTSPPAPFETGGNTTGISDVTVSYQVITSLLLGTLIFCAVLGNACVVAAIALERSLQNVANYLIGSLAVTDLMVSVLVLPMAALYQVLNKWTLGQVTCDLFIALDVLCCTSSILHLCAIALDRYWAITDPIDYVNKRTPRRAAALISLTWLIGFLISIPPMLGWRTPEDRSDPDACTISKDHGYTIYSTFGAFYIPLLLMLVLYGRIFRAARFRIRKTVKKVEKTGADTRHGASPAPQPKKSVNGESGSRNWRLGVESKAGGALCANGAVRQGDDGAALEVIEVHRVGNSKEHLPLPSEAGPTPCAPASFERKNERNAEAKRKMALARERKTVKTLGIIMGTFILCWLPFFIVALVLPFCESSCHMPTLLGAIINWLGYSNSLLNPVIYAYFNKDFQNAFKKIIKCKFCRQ
Put plainly: 5-HT1a binding (method not described).

The IC50 is the concentration that gives 50% inhibition.

Molecules are shown by their SMILES. Read-outs that look alike come from different tables or passages of the source.

T1 sequence (P61169 whole entry): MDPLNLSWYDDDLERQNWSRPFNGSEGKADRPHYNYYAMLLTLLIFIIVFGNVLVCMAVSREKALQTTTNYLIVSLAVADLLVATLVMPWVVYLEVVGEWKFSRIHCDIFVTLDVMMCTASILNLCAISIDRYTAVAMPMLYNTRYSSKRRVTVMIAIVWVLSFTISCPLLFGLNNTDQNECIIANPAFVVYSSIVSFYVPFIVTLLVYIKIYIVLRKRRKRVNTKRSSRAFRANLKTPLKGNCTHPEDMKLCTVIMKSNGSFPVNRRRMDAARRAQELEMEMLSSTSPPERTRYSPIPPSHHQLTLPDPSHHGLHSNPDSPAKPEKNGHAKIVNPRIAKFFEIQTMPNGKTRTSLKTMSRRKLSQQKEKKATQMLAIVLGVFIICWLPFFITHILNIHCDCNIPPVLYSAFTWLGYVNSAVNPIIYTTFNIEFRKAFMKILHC

Take `O=C1Cc2c(ccc3c2OC(CNCc2ccccc2)CC3)N1` (single isomer, unassigned; (+)) [Example 2a, (+)-2-(benzylamino-methyl)-3,4,7,9-tetrhydro-2H-pyrano[2,3-e]indol-8-one]: the IC50 was 519 nM at α1, 16.4 nM on dopamine autoreceptor and 330 nM on 5-HT1a (read-out: IC50 (nM) 5-HT1a.). Further, at dopamine autoreceptor, the Ratio antagonist is 45.

Consider `O=C1Cc2c(ccc3c2OC(CNCc2ccccc2)CC3)N1` (single isomer, unassigned; (-)) [Example 2b, (-)-2-(benzylamino-methyl)-3,4,7,9-tetrhydro-2H-pyrano[2,3-e]indol-8-one], for which the IC50 at α1 is 330 nM; on dopamine autoreceptor, 0.27 nM; on 5-HT1a (read-out: IC50 (nM) 5-HT1a.) it was 17.1 nM. Further, the Ratio antagonist on dopamine autoreceptor is reported as 265.

As to `O=C1Cc2c(ccc3c2OC(CNCc2ccccc2)CC3)N1` (centres unmarked) [Example 1a, 2-(Benzylamino-methyl)-3,4,7,9-tetrahydro-2H-pyrano-[2,3-e]indol-8-one], the results for the IC50 at α1, on dopamine autoreceptor and on 5-HT1a (read-out: IC50 (nM) 5-HT1a.) were 244 nM, 0.73 nM and 34 nM, respectively. Besides, the Ratio antagonist on dopamine autoreceptor is given as 194.

Regarding `O=C1Cc2c(ccc3c2OC(CNCc2ccc(F)cc2)CC3)N1` (centres unmarked) [Example 1b, 2-(4-Fluoro-benzylamino-methyl)-3,4,7,9-tetrahydro-2H-pyrano[2,3-e]indol-8-one], the IC50 is 352 nM at α1, 0.83 nM at dopamine autoreceptor and 16 nM on 5-HT1a (read-out: IC50 (nM) 5-HT1a.). Further, the Ratio antagonist on dopamine autoreceptor is 375.

Regarding `COc1ccc(CNCC2CCc3ccc4c(c3O2)CC(=O)N4)cc1` (centres unmarked) [Example 1c, 2-(4-Methoxy-benzylamino-methyl)-3,4,7,9-tetrahydro-2H-pyrano[2,3-e]indol-8-one], the values for the IC50 at α1, on dopamine autoreceptor and at 5-HT1a (read-out: IC50 (nM) 5-HT1a.) were 258 nM, 0.96 nM and 38 nM, respectively. On dopamine autoreceptor, the Ratio antagonist is given as 307.

Regarding `Cc1ccc(CNCC2CCc3ccc4c(c3O2)CC(=O)N4)cc1` (centres unmarked) [Example 1d, 2-(4-Methyl-benzylamino-methyl)-3,4,7,9-tetrahydro-2H-pyrano[2,3-e]indol-8-one], the IC50 at α1 is 194 nM; on dopamine autoreceptor, 0.45 nM; at 5-HT1a (read-out: IC50 (nM) 5-HT1a.), 10 nM. Also, the Ratio antagonist at dopamine autoreceptor is recorded as 229.

In the case of `O=C1Cc2c(ccc3c2OC(CNCc2ccc(Cl)cc2)CC3)N1` (centres unmarked) [Example 1e, 2-(4-Chloro-benzylamino-methyl)-3,4,7,9-tetrahydro-2H-pyrano[2,3-e]indol-8-one], the IC50 on α1 amounted to 184 nM; at dopamine autoreceptor, 0.64 nM; at 5-HT1a (read-out: IC50 (nM) 5-HT1a.), 7.53 nM. The Ratio antagonist on dopamine autoreceptor was 233.

Consider `Cc1ccc(CNCC2CCc3ccc4c(c3O2)CC(=O)N4)c(C)c1` (centres unmarked) [Example 1f, 2-(2,4-Dimethyl-benzylamino-methyl)-3,4,7,9-tetrahydo-2H-pyrano[2,3-e]indol-8-one], for which the values for the half-maximal inhibitory concentration (IC50) at α1, on dopamine autoreceptor and on 5-HT1a (IC50 (nM) 5-HT1a.) were 81 nM, 2.62 nM and 15 nM, respectively. Besides, on dopamine autoreceptor, the Ratio antagonist is given as 150.
